Some results are limits rather than exact numbers.

The molecule `COc1ccc(-c2c(NCCc3ccc(C(C)(C)C)cc3)c(=O)c2=O)cc1` came in with a melting point of 258 to 260 °C.

In turn, `O=c1oc(=O)n(CCc2ccccc2)c2ncccc12` came in with a melting point of 147 to 149 °C.

Molecule `CCCCCCCCCCCCCCCCCC(O)c1ccc(C2=NC(C)(C)CO2)cc1` (stereo unspecified) gave a melting point of 72 to 75 °C. On to `COC(=O)c1cccc(-c2ccc(OC)c(OC3CCCC3)c2)c1`, for which the melting point lay in the range of 85 to 87 °C. `O=C(O)c1ccc(OCC2CCCCC2)cc1` registered a melting point of 209 to 210 °C. With `CNc1ccccc1C(=O)CCl`, the melting point was 65 to 68 °C. For `CCCCOCCOc1ccc(-c2ccc3c(c2)C=C(C(=O)Nc2ccc(SCc4nncn4CC(C)C)cc2)CCN3CCC)cc1`, the melting point is 130 to 132 °C. Take `Cc1ccc(CCCCCCCCCCC(Cl)(Cl)C(=O)O)cc1`: the melting point is 58 to 59 °C.

`O=S(c1ccc2c(c1)C(=C1CCN(CC3CC3)CC1)c1ccccc1C=C2)C(F)(F)F` (stereo unspecified) gave a melting point of 146 to 148 °C. The molecule `CSC(NCCSCc1[nH]cnc1C)=C(C#N)C(N)=O` showed a melting point of 137 to 139 °C. The value for `COC1=NC(=O)c2c1cc1ccc3c(c1c2-c1ccc2c(c1)OCO2)OCO3` was 306 to 308 °C.

`Cc1cccc(OCC2=NCCN2C(=O)Oc2cccc(C)c2C)c1C`: the melting point fell in the range of 126 to 127 °C. `CCCc1c(O)c(C(C)=O)cc2c(C)cc(C(=O)O)nc12` had a melting point of 125 to 127 °C. The value for `CC(C)n1cc(-c2ccccc2)c(=O)c(-c2ccccc2)c1` was 152 °C; that for `COC=C(C(=O)OC)c1ccccc1CSc1ccccc1` was 71 °C.

`CCOC(=O)c1sc2ccc3c(c2c1Cl)O[C@@H](CO)CO3` returned a melting point of 165 to 166 °C.

On to `CC1(C)CCc2ccccc2C1c1cncnc1SCF` (stereo unspecified), for which the melting point fell in the range of 126 to 128 °C.

For `O=C(C1CN(S(=O)(=O)c2ccc3cc(Br)ccc3c2)CCN1C(=O)C1CCN(c2ccncc2)CC1)N1CCOCC1` (stereo unspecified), the melting point lay in the range of 235 to 237 °C.

Consider `N#Cc1nn(-c2c(Cl)cc(C(F)(F)F)cc2Cl)c(N)c1-c1ccccc1F`, for which the melting point came to 197 °C. For `COc1ccc(OC[C@@H](O)CNCCc2ccc(NC3SC(=O)NC3=O)cc2)cc1` (stereo partly specified) the value was 60 °C; for `O=C(CO)NCc1ccc2ccn(C3CCN(CCc4ccc(F)cc4)CC3)c2c1`, 76 to 78 °C; for `CCCN(CCC)Cc1nc(-c2ncn3c2[C@@H]2CCN2C(=O)c2ccccc2-3)no1`, 208 to 210 °C. Molecule `CC(=O)N1CC(C)(C)CN=C1N(N=CC(C=Cc1ccc(C(F)(F)F)cc1)=Cc1ccc(C(F)(F)F)cc1)C(C)=O` displayed a melting point of 70 to 72 °C. In turn, `COC(=O)[C@H]1[C@@H](NC(=O)OC(C)(C)C)C(=O)N1Cc1ccc(OC)cc1OC` (relative stereo) showed a melting point of 134 to 135 °C. The value for `N#CC1(CCNC(=O)C(Cl)Cl)CC1` was 97 to 100 °C; that for `O=C1NCc2c3c(c4[nH]c5ccccc5c4c21)Cc1ccc(C=Cc2ccccn2)cc1-3` was > 320 °C. `O=C1N(N2CCOCC2)c2ccccc2C1(Cc1ccncc1)c1ccccc1` (stereo unspecified) had a melting point of 190 to 192 °C. In the case of `CC(C)(C(=O)Nc1cc(Cl)cc(Cl)c1)N1COC(C#N)=C(c2ccccc2)C1=O`, the melting point lay within 132 to 135 °C.

Take `Cc1cccnc1-n1ccnc1S(=O)Cc1ccccc1N` (stereo unspecified): the melting point lay in the range of 112 to 114 °C.

`CS(=O)(=O)Nc1cc(C=C2c3ccccc3CCc3ccccc32)ccc1O` registered a melting point of 123 °C. On to `CS(=O)(=O)c1ccc(Oc2cc(OCc3ccccc3)c3[nH]c(-c4nnc(CO)s4)cc3c2)cc1`, for which the melting point was in the range of 159 to 160 °C.

Consider `O=C(OCc1ccc(OCCCCCCc2ccc(Cl)cc2)cc1)c1cccnc1`, for which the melting point lay in the range of 56 to 57 °C. Take `Cc1ccc2c(S(C)(=O)=O)cn(CC3=NCCN3)c2c1`: the melting point is > 300 °C. In turn, `OC1=C(C(=S)Nc2ccccc2)c2nc3ccccc3n2CC1` showed a melting point of 224 to 227 °C. Turning to `O=C(C=Cc1ccc(C(F)(F)F)cc1)N1CCC(O)CC1`, the melting point is 124 to 135 °C.

`OC(Cn1ncc2c(Br)ncnc21)c1ccccc1` (stereo unspecified): the melting point is 146 to 147 °C. The value for `COC(=O)CCCCNC(=O)C(COS(C)(=O)=O)NS(=O)(=O)c1ccc(Cl)cc1` (racemic) was 95 to 97 °C. The value for `CCCc1c(C(=O)C(C)C)c2ccc(C(N)=O)cc2n1Cc1ccc(Cl)cc1F` was 200 to 202 °C. The value for `CCC(=O)OCC(OC(=O)CC)C1OC(OC(=O)CC)C(OC(=O)CC)C1OC(=O)CC` (stereo unspecified) was 74.5 to 75.5 °C. `CCC(C)OC(=O)SN(C(=O)N1CC2(C(=O)OC)CCc3ccccc3C2=N1)c1ccc(C(F)(F)F)cc1` (stereo unspecified) came in with a melting point of 125 to 126 °C. The value for `COc1ccc(-c2cc(CO)c(=O)n(CC=Cc3ccc(Cl)cc3)n2)cc1F` was 158 to 160 °C; that for `O=S(CCCCNC(P(=O)(O)O)P(=O)(O)O)c1ccccn1` (stereo unspecified) was 235 to 240 °C; that for `CC(C)NS(=O)(=O)c1ccc(N2CCC(N3C(=O)OCc4ccccc43)CC2)c([N+](=O)[O-])c1` was 168 °C. For the molecule `C=C(C)n1c(=O)n(CCN2CCC(Cc3c[nH]c4ccc(F)cc34)CC2)c2ccccc21`, the melting point was found to be 132 °C. The molecule `CCC(=O)c1cc(C2(c3cccc(-c4cncnc4)c3)N=C(N)N(C)C2=O)cs1` (stereo unspecified) had a melting point of 167 to 172 °C. `O=Cc1c(O)c(Cl)cc(Cl)c1OCCCCC(=O)O` displayed a melting point of 85 to 87 °C. The molecule `COc1cccc(-c2c(NC(=O)Nc3c(C(C)C)cccc3C(C)C)c(=O)n(C)c3ncccc23)c1` displayed a melting point of 169 to 170 °C. For `CN1C(=O)C(Cc2ccccc2)Oc2ccc([N+](=O)[O-])cc21` (stereo unspecified) the value was 166 to 169 °C; for `CC1(C)CN(CCO)C(=O)C(C)(C)N1`, 91 to 93 °C. Consider `Cc1cnc2c(S(=O)(=O)N[C@@H](CCCc3cn(C(c4ccccc4)(c4ccccc4)c4ccccc4)cn3)C(=O)O)cccc2c1`, for which the melting point turned out to be 170 °C.

Molecule `CC(C=CC1(O)C(C)=CC2(OCCO2)c2ccccc21)=CCO` (stereo unspecified) returned a melting point of 116 to 118 °C.

Molecule `O=C(O)c1cc(-n2c(-c3ccc(Cl)c(Cl)c3)cc3c2CCCC3)ccc1O` yielded a melting point of 210 to 211 °C. The value for `CCCCc1ccc(CCCCC(N)(CO)CO)cc1` was 92 to 94 °C. `Oc1ccc2c(c1)NCC2`: the melting point lay in the range of 115 to 120 °C. As to `O=C(O)C1=CSC2C(=Cc3cc4c(s3)CCSC4)C(=O)N12` (stereo unspecified), the melting point is > 250 °C. For `C=CCNC1=NS(=O)(=O)N=C1NCCSCc1ccc(CN(C)C)o1` the value was 83 to 86 °C. With `Clc1ccc(C2CCNCC2)cc1`, the melting point is 143 °C. Consider `CN(C)CCc1c(C(=O)O)[nH]c2ccc(C[C@H]3COC(=O)N3)cc12`, for which the melting point turned out to be 230 °C. In the case of `CCOC(=O)C1=C(C)NC(c2cscn2)=NC1c1cccc(Cl)c1` (stereo unspecified), the melting point is 105 to 108 °C. The value for `COc1ccc(C2=NN(c3ccc(O)cc3)C(=O)[C@@H]3CC=CC[C@H]23)cc1OC` was 111 to 112 °C; that for `COC(=O)c1cc2c(O)c(C(=O)NCc3ccc(Cl)cc3)cnc2nc1C` was 265 to 267 °C.

As usually defined, the melting point is the temperature, or range, at which the solid turns liquid.

(Values after a melting point compilation (Tetko et al.; mined from patent text by program, amines drawn as free bases though some values may be those of a salt).)
